Source: patent publication US20120035161A1, “Novel Compositions and Methods of Treating Diseases Using the Same” (CORRIDOR PHARMACEUTICALS, INC., priority 2006, published 2012)

Tests used:
[1] = biological target: T1, Serotonin (5-Hydroxytryptamine) 5-HT1B (Rattus norvegicus, UniProt P28564); assay: Assay 271200 radioligand binding, 5-HT1B; design: species or system Wistar Rat
T1 construct: from tissue
Procedure: (§1) The methods employed in this study have been adapted from the scientific literature to maximize reliability and reproducibility. Reference standards were run as an integral part of each assay to ensure the validity of the results obtained. Assays were performed under conditions as described below. Where presented, IC50 values were determined by a non-linear, least squares regression analysis using the Data Analysis Toolbox (MDL Information Systems, San Leandro, Calif., USA). Where inhibition constants (Ki) are presented, the Ki values were calculated using the equation of Cheng and Prusoff (Cheng, Y., Prusoff, W. H., Biochem. Pharmacol. 22:3099-3108, 1973) using the observed IC50 of the tested compound, the concentration of radioligand employed in the assay, and historical values for the KD of the ligand. Where presented, the Hill coefficient (nu), defining the slope of the competitive binding curve, was calculated using the Data Analysis Toolbox.

[2] = test system: Serotonin (5-Hydroxytryptamine) 5-HT2, Non-Selective; assay: Assay 271600 radioligand binding, 5-HT2 non-selective; design: species or system Wistar Rat
Procedure: as §1

T1 sequence (P28564 whole entry): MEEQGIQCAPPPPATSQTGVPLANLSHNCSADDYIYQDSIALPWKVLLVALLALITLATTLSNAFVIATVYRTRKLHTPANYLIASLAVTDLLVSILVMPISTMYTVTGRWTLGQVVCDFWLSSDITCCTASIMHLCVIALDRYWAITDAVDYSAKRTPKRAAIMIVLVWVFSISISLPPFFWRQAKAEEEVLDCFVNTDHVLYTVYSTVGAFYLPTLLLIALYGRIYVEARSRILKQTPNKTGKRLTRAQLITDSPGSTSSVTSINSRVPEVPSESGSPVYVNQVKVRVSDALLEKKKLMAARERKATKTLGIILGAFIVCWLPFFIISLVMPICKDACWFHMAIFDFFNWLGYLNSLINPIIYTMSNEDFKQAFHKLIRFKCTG

`NCC(=O)NCCN1CCN(CCCN2c3ccccc3Sc3ccc(C(F)(F)F)cc32)CC1` [ICI-735] was tested, and the inhibition at 0.1 µM ([1]; 0.1 μM) was 13%, the inhibition at 10 µM ([1]; 10 μM) was 86% and the “% INHIBITION” value ([2]; 0.1 μM) was 62%. The “% INHIBITION” value ([2]; 10 μM) was 91%.
